# Laboratory results from patent publication US9694073B2, “Small molecule inhibitors of polynucleotide kinase/phosphatase, poly(ADP-ribose) polymerase and uses thereof” (THE GOVERNORS OF THE UNIVERSITY OF ALBERTA, priority 2009, dated 2017).
# Entries after “also recorded” stand apart in the source; their conditions may differ. Starred links: 1 amine or outer side, 2 acyl side, 3 side chain; linkers in the order of their positions; H or OH if unused. Positions of bridges follow the written chain, without caps; N, C: chain ends. Non-standard residues stand in square brackets, D forms with d. Residues, ends and D or L forms follow the SMILES beside them. Adda = CO[C@@H](Cc1ccccc1)[C@@H](C)/C=C(C)/C=C/[C@H](N[*:1])[C@H](C)C(=O)[*:2]; dAsp(3S-Me) = C[C@H](C(=O)[*:3])[C@@H](N[*:1])C(=O)[*:2]; d(γGlu) = O=C(O)[C@@H](CCC(=O)[*:2])N[*:1]; NMeDha = C=C(NC)C(=O)O
# How the values were obtained:
# [1] = target: T1, human PNKP (hPNKP) 3'-phosphatase activity (Homo sapiens, UniProt Q96T60); experiment: Fluorescence quenching-based screening assay for PNKP 3'-phosphatase activity; assay type: biochemical; conditions: 100 μM compound, 50 ng hPNKP
# T1 construct: made in house; host or cells: bacteria (said only for the batch compared with aprataxin)
# Experimental: The […] assay developed originally for protein kinases by QTL Biosystems (Santa Fe, N. Mex.) was modified. […] The TAMRA-labelled oligonucleotide lacking a 3'-phosphate served as a control. […] The assay was performed in 384-well white Optiplate microplates (PerkinElmer, Woodbridge, ON) in 70 mM Tris-HCl, pH 7.4, 60 mM MgCl2, 5 mM MnCl2, 0.3% BSA, 0.09% sodium azide. Reaction buffer was prepared by adding 1 mM DTT immediately prior to use. Five μL of 3'-phosphatase substrate (final concentration 0.5 μM) was used per well. In duplicate, 10 μl of each concentration of hPNKP was added per well. Plates were incubated for 1 hour at 37° C. and then 15 μl of 1× sensor solution (provided by QTL) was added to each well and incubated for 30 minutes at room temperature. Fluorescence (485 nm excitation and 520 nm emission wavelengths) of each well was read in a FLUOstar Optima® (BMG Labtech Inc, Durham, N.C.). Data were analyzed using GraphPad Prism® Software (San Diego, Calif.). […] Small molecules were provided in powder form and were dissolved in 100% DMSO and a final concentration of 100 μM was added to each well and assays were performed as described above. After obtaining an optimum calibration curve and enzyme concentration curve, a simplified form of the assay to test the library in a short time, was employed. One concentration of hPNKP, 50 ng, was tested and compared with the control well with no enzyme. The assay was conducted in the same way as described above with respect to oligonucleotides, buffer, controls, incubation lengths/temperatures, centrifugations and sensor addition. The fluorescence-based phosphatase assay adapted was originally developed to monitor protein phosphatase activity (34). This assay involves a fluorescent sensor molecule coated in trivalent metal cations which causes superquenching of the sensor signal when in close proximity to a dye (TAMRA) on the substrate. The sensor is brought close to TAMRA via the ionic bond formed between the terminal DNA phosphate and the trivalent metal cations on the sensor. Removal of the phosphate leads to an elevation of fluorescence because the sensor is not brought close enough to TAMRA for its signal to be quenched. […] Heat inactivated hPNKP was used as a control.
# [2] = target: T2, hPNKP 3'-phosphatase activity (Homo sapiens, UniProt Q96T60); experiment: Conventional radio-gel assay for hPNKP 3'-phosphatase activity; assay type: biochemical
# T2 construct: made in house; host or cells: bacteria (said only for the batch compared with aprataxin)
# [3] = tested on: M059J cells (DNA-PKcs negative); assay type: cell-based, human
# [4] = tested on: A549-VO vector only control cells
# [5] = target: T3, PP-1cγ (Homo sapiens, UniProt P36873); experiment: PP-1cγ pNPP phosphatase assay; assay type: biochemical
# T3 construct: made in house; host or cells: E. coli
# T3 sequence (P36873 whole entry): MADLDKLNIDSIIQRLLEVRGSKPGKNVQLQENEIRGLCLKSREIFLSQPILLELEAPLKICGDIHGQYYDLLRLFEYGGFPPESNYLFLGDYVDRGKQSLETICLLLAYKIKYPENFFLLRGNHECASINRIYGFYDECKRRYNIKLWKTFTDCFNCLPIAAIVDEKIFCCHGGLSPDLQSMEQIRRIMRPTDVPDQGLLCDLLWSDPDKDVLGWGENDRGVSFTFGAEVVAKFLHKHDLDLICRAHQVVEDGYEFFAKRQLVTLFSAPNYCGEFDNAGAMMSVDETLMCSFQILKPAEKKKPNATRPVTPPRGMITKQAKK
# Experimental: PP-1cγ and calcineurin activity was analyzed, using a colorimetric p-nitrophenol phosphate (pNPP) assay as previously described (33). The reaction were carried out in a 96-well microplate with a final volume of 60 μl containing 40 μl of pNPP assay buffer (50 mM Tris, pH 7.4, 0.1 mM EDTA, 30 mM MgCl2, 0.5 mM MnCl2, 1 mg/ml BSA, 0.2% β-mercaptoethanol), 0.03 μg PP-1cγ (specific activity>30 units per mg) or a catalytically equivalent quantity of calcineurin and 10 μl of 0.5 mM DNA 3′-phosphatase inhibitor sample in DMSO or 10 μl of 50 μM A12B4C3 sample in DMSO, or control solvent. After a 10-minute incubation at 37° C., 10 μl of 30 mM pNPP was added to each well and incubated for an additional of 60 minutes and 45 minutes for PP-1cγ and calcineurin, respectively.
Compound,inhibition of hPNKP phosphatase activity (substrate dephosphorylation) in the screening assay [1],"inhibition of hPNKP phosphatase activity, radio-gel assay [2]",cell survival of M059J cells [3],cell survival of control cells (A549-VO) [4],reduction of the activity of PP1 [5] [%]
"O=C1C2C=CC(C(O)c3ccccc3)N(Nc3ccc([N+](=O)[O-])cc3)C2C(=O)N1c1ccccc1 (stereo not drawn) [Compound A1B4C3, 2-(hydroxy(phenyl)methyl)-1-(4-nitrophenylamino)-6-phenyl-6,7a-dihydro-1H-pyrrolo[3,4-b]pyridine-5,7(2H,4aH)-dione]",significant inhibition; also recorded: marked inhibition,inhibited,,,
"O=C1NCCc2c(OCCCCN3CCCCC3)cccc21 [DPQ, 3,4-dihydro-5[4-(1-piperindinyl)butoxy]-1(2H)-isoquinoline]",,,reduced survival,no such relationship,
"CN1C(=O)C2C=CC(C(O)C(c3ccccc3)c3ccccc3)N(NC(=O)OC(C)(C)C)C2C1=O (stereo not drawn) [Compound A26B11C2, tert-butyl 2-(1-hydroxy-2,2-diphenylethyl)-6-methyl-5,7-dioxo-2,4a,5,6,7,7a-hexahydro-1H-pyrrolo[3,4-b]pyridin-1-ylcarbamate]",significant inhibition; also recorded: marked inhibition,inhibited,,,
"C=C1C(=O)N[C@H](C)C(=O)N[C@@H](CC(C)C)C(=O)N[C@@H](C(=O)O)[C@H](C)C(=O)N[C@@H](CCCNC(=N)N)C(=O)N[C@@H](/C=C/C(C)=C/[C@H](C)[C@H](Cc2ccccc2)OC)[C@H](C)C(=O)N[C@@H](C(=O)O)CCC(=O)N1C [microcystin LR, reference compound] (R[Adda][d(γGlu)][NMeDha][dA]L[dAsp(3S-Me)]-OH; lactam N-7)",,,,,~65
"CN1C(=O)C2C=CC(C(O)c3cccs3)N(Nc3ccccc3)C2C1=O (stereo not drawn) [Compound A39B1C2, 2-(hydroxy(thiophen-2-yl)methyl)-6-methyl-1-(phenylamino)-6,7a-dihydro-1H-pyrrolo[3,4-b]pyridine-5,7(2H,4aH)-dione]",significant inhibition; also recorded: marked inhibition,inhibited,,,
